Key:
[1] = test system: JAK2/STAT5; assay: JAK2/STAT5 phosphorylation in breast cancer cell lines (pJAK2 ELISA, pSTAT5 immunoblot); assay type: cell-based, human; details: for JAK2 activation, starting at (time of treatment): in vitro, time after adding the compound
Description: MDA231, lung metastatic subline MDA231 LM2 (Minn et al., 2005) and SUM159 human breast cancer cells, as well as the Balb/c tumor-derived mammary cancer lines 4T-1 and 168FARN (Aslakson and Miller, 1992), were propagated as previously described. All other cell lines were obtained from and were cultured according to the protocols of ATCC. For treatment with inhibitors, cells were synchronized without serum overnight and then supplemented with culture medium containing the inhibitor(s). For experiments with doxycycline-inducible shRNAs, 500 ng/ml of doxycycline (Sigma) was added to the medium and experiments performed 48 h later. Cell viability assays, cell cycle and cell death measurements were performed at 0.5% FCS in order to avoid masking effects of growth factors present under full-serum conditions.
Cells for Western Blotting and ELISA were lysed with RIPA buffer. Xenograft lysates were prepared by lysing kryo-homogenized tumor powder in RIPA buffer (50 mM Tris-HCl pH 8, 150 mM NaCl, 1% NP-40, 0.5% sodium deoxycholate, 0.1% SDS. RIPA was supplemented with 1× protease inhibitor cocktail (Complete Mini, Roche), 0.2 mmol/L sodium-vanadate, 20 mM sodium fluoride and 1 mmol/L phenylmethylsulfonyl fluoride. For IRS-1 immunoprecipitation, cell lysates containing 500-1000 μg of protein were incubated with 1 μg of antibody and 20-50 μl of protein A-Sepharose beads (Zymed Laboratories, Inc., South San Francisco, Calif.) overnight at 4° C. Immunoprecipitates or whole cell lysates (30-80 μg) were subjected to SDS-PAGE, transferred to PVDF membranes (Immobilon-P, Millipore) and blocked for 1 hr at room temperature with 5% milk in PBS-0.1% Tween 20. Membranes were then incubated overnight with antibodies as indicated and exposed to secondary HRP-coupled anti-mouse or -rabbit antibody at 1:5-10,000 for 1 h at room temperature. Proteins were visualized using an ECL kit (Amersham) or an enhanced chemiluminescence detection system (Pierce Biotechnology). In each of the studies presented, the results shown are typical of at least three independent experiments. The following antibodies were used: anti-JAK2 (Cell Signaling), anti-JAK1 (Cell Signaling), anti-pSTAT5 (Tyr694, Cell Signaling), anti-STAT5 (STAT5A&B, Cell Signaling), anti-STAT3 (Cell Signaling), anti-pSTAT3 (Tyr705, Cell Signaling), anti-AKT pan (Cell Signaling), anti-pAKT (Thr308 and Ser473, Cell Signaling), anti-ERK2 (Santa Cruz), anti-S6 (Cell Signaling), anti-pS6 (Ser235/236, Cell Signaling), anti-PARP (Cell Signaling), anti-MCL1 (Cell Signaling), anti-BIM (EL, L and S isoforms, Cell Signaling), anti-pIGF1R/plnsR (Invitrogen), anti-IGF1Rbeta (Cell Signaling), anti-InsRbeta (Santa Cruz), anti-IRS1 (Upstate), anti-plRS1 (Tyr612, Calbiochem).
For assessing pJAK2 levels, an ELISA assay (Tyr1007/1008, Invitrogen) was applied because of cross-reactivity of all pJAK2 antibodies tested. Interleukin-8 levels in RIPA lysates, cell culture supernatants and mouse tail vein blood plasma were measured by ELISA, as well (Biolegend). […]
The present inventors applied single doses of COMPOUND A, a dual PI3K and mTOR inhibitor, and analyzed target inhibition and potential signaling pathway crosstalks after 2, 4, 8 and 20 h hours of treatment. […] While RAD001 readily activated JAK2 starting at 4 hours of treatment, they observed a later response with BKM120 treatment starting at 8 hours after adding the compound. […]

[2] = test system: MDA231 LM2 cells; assay: Matrigel Boyden chamber invasion assay; assay type: cell-based, human; details: 300 nM BEZ235, 350 nM NVP-BSK805, CXCR1 blocking antibody; 48 h; normalized to cell number
Description: FIG. 2. Blockade of CXCR1 reduces invasion and has minor effects on primary tumor growth (A) NVP-BSK805 and CXCR1 blockade but not BEZ235 decrease invasion. Bar graphs showing relative invasion of MDA231 LM2 cells seeded on Matrigel coated Boyden invasion chambers and treated with 300 nM BEZ235, 350 nM NVP-BSK805, a JKA2 inhibitor, and/or CXCR1 blocking antibody. Invasion was assessed after 48 h, data represent relative invasion values normalized to cell number and are means±SEM (n=4, *P<0.05).
Cytokine stimulation of cells was performed for 30 min in medium with 0.5% FCS supplemented with cytokines at 10 ng/ml, except for EPO at 10 U/ml. Antibody-blocking experiments were performed by adding anti-CXCR1 (R&D, MAB330, 1 μg/ml), anti-CXCR2 (R&D, MAB331, 2.5 μg/ml) or a mouse IgG antibody (R&D, 1 μg/ml) to the medium 45 min prior to lysis of the cells. Cell viability was measured using the Cell Proliferation Reagent WST-1 (Roche). Colony formation assays were performed by seeding 1000 cells/well in 6-well plates and staining single colonies after 7-14 days with 0.2% crystal violet in PBS/4% formalin. […] The number of invading cells in each treatment condition was counted 48 h after seeding by microscopy at 40× (using the mean of 4 microscopic fields) and normalized to cell number.

| SMILES | JAK2 activation, starting at (time of treatment) [1] | relative invasion [2] | upregulation of pSTAT5 by BEZ235 ([1]; JAK2 inhibitor together with BEZ235) |
| --- | --- | --- | --- |
| Nc1cc(C(F)(F)F)c(-c2cc(N3CCOCC3)nc(N3CCOCC3)n2)cn1 [COMPOUND C, 5-(2,6-di-morpholin-4-yl-pyrimidin-4-yl)-4-trifluoromethyl-pyridin-2-ylamine] | 8 h |  |  |
| Fc1cc(-c2cccc3ncc(-c4cnn(C5CCNCC5)c4)nc23)cc(F)c1CN1CCOCC1 [NVP-BSK805, reference compound] |  | decrease | counteracted |
| CO[C@H]1C[C@@H]2CC[C@@H](C)[C@@](O)(O2)C(=O)C(=O)N2CCCC[C@H]2C(=O)O[C@H]([C@H](C)C[C@@H]2CC[C@@H](OCCO)[C@H](OC)C2)CC(=O)[C@H](C)/C=C(\C)[C@@H](O)[C@@H](OC)C(=O)[C@H](C)C[C@H](C)/C=C/C=C/C=C/1C [RAD001, reference compound] | 4 h |  |  |

From US20150224190A1, “Combination of a phosphoinositide 3-kinase inhibitor and an inhibitor of the IL-8/CXCR interaction” (priority 2012, published 2015)
